Data on one compound can be found in publication PMC11117721, “A Fast-Binding, Functionally Reversible, COX-2 Radiotracer for CNS PET Imaging” (ACS Central Science, 2024).

This assay concerns the target T1, COX-2 (Homo sapiens, UniProt P35354).
T1 sequence (P35354 18-604): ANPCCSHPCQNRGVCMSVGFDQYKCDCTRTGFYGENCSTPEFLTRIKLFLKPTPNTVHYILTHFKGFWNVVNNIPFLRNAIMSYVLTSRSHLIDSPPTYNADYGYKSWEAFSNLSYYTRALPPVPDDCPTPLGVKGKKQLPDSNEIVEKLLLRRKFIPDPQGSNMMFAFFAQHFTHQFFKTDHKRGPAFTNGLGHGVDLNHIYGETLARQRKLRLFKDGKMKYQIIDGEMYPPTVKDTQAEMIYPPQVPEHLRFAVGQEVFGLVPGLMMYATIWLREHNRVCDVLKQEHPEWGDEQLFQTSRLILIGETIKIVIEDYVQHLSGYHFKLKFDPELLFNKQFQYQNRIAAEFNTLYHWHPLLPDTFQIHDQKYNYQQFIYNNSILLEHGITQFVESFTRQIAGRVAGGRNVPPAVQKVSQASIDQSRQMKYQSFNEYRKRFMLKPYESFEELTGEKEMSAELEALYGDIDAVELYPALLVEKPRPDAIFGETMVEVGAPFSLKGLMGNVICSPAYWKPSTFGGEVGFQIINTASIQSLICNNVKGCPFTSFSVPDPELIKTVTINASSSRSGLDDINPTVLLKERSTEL
The experiment in a line: PET neuroimaging of rats with localized human COX-2 overexpression (intrastriatal AAV2-GFP-hCOX2). Format: in vivo. Further details: FLAG; P2A linker remnant (GFP cassette co-expressed, separated by P2A); host or cells: rat striatal (caudate putamen) neurons transduced in vivo with AAV2, human synapsin promoter. The following applies: COX-2 overexpression rat model. Here is the method:
Localized overexpression of human COX-2 was induced in rats with intrastriatal injections of AAV2-GFP-hCOX2 to the right caudate and AAV2-GFP (control virus) to the left caudate (Figure 2A).[53] Animals also received a systemic injection of mannitol to enhance vector spread and transgene expression.[54] To directly compare the kinetic profiles of the three COX-2 tracers, intrasubject imaging was performed in several rats. Each animal was scanned under baseline and competition (+celecoxib) conditions, testing each tracer within each animal (initial data in Figure 2). […] The full experimental design was then replicated (Figure S8 in the Supporting Information). An additional experiment lacking the control virus to the left caudate was performed to facilitate assessment of tracer uptake that could be mediated by the instrastiatal injection through blood brain barrier disruption (Figure S9 in the Supporting Information).
In accordance with Massachusetts General Hospital Institutional Animal Care and Use Committee (IACUC) protocols, Sprague Dawley rats (300-500g, Charles River Laboratories), wildtype mice (Strain […]
Respiratory rates and body temperature were monitored through all imaging and surgical procedures, generally using a respiratory pad and rectal probe. […]
Figure 9). […] Using a sterile ruler coordinates ML 2.5 mm; AP 0.5 mm was measured and marked respective t o bregma. […]

For `[11CH3]S(=O)(=O)c1ccc(-c2cccc(NCc3ccoc3)n2)cc1` [[^11C]BRD1158], the “time of clear separation of right caudate PET signal from controls (left caudate and cerebellum)” value is listed as 10 min.
